From ChEMBL document CHEMBL5356971, “Optimization of the Antibacterial Spectrum and the Developability Profile of the Novel-Class Natural Product Corramycin” (J Med Chem, 2023)
Converted amounts (≈) assume the structure as drawn.

Legend:
Escherichia coli [1] = test: Antibacterial activity against Escherichia coli ATCC 35218 infected in Swiss albino mouse model of Septicaemia infection assessed as log reduction in Septicaemia in blood at 20 mg/kg , iv preincubated for 4 hrs followed by bacterial infection and measured after 4 hrs post infection; assay type: functional; conditions: time 8 hrs
Klebsiella pneumoniae [2] = test: Antibacterial activity against Klebsiella pneumoniae ATCC 13883 assessed as reduction in microbial growth incubated for 20 to 22 hrs by CLSI based analysis; assay type: functional; conditions: time 20-22 hrs
[3] = Metabolic stability in mouse kidney assessed as parent compound remaining measured after 4 hrs by UPLC-MS analysis; assay type: ADME, tissue-based; conditions: read-out: Stability
Escherichia coli [4] = test: Antibacterial activity against Escherichia coli ATCC 35218 assessed as reduction in microbial growth incubated for 20 to 22 hrs by CLSI based analysis; assay type: functional; conditions: time 20-22 hrs
[5] = Metabolic stability in mouse lung assessed as parent compound remaining measured after 1 hrs by UPLC-MS analysis; assay type: ADME, tissue-based; conditions: mouse lung, read-out: Stability
Acinetobacter baumannii [6] = test: Antibacterial activity against Acinetobacter baumannii ATCC 19606 assessed as reduction in microbial growth incubated for 20 to 22 hrs by CLSI based analysis; assay type: functional; conditions: time 20-22 hrs
[7] = Metabolic stability in mouse kidney assessed as parent compound remaining measured after 1 hrs by UPLC-MS analysis; assay type: ADME, tissue-based; conditions: read-out: Stability
[8] = Metabolic stability in mouse lung assessed as parent compound remaining measured after 4 hrs by UPLC-MS analysis; assay type: ADME, tissue-based; conditions: mouse lung, read-out: Stability
Escherichia coli [9] = test: Antibacterial activity against Escherichia coli ATCC 35218 infected in Swiss albino mouse model of Septicaemia infection assessed as log reduction in Septicaemia in blood at 10 mg/kg , iv preincubated for 4 hrs followed by bacterial infection and measured after 4 hrs post infection; assay type: functional; conditions: time 8 hrs
Escherichia coli [10] = test: Antibacterial activity against multidrug-resistant Escherichia coli IR45 assessed as bacterial growth inhibition incubated for 20 to 22 hrs by CLSI based analysis; assay type: functional; conditions: time 20-22 hrs
Klebsiella pneumoniae [11] = test: Antibacterial activity against multidrug-resistant Klebsiella pneumoniae B817 assessed as bacterial growth inhibition incubated for 20 to 22 hrs by CLSI based analysis; assay type: functional; conditions: time 20-22 hrs
Pseudomonas aeruginosa [12] = test: Antibacterial activity against multidrug-resistant Pseudomonas aeruginosa PAO750 assessed as bacterial growth inhibition incubated for 20 to 22 hrs by CLSI based analysis; assay type: functional; conditions: time 20-22 hrs
Escherichia coli [13] = test: Antibacterial activity against multidrug-resistant Escherichia coli BAA2469 assessed as bacterial growth inhibition incubated for 20 to 22 hrs by CLSI based analysis; assay type: functional; conditions: time 20-22 hrs
Enterobacter cloacae = test: Antibacterial activity against multidrug-resistant Enterobacter cloacae BAA2341 assessed as bacterial growth inhibition incubated for 20 to 22 hrs by CLSI based analysis; assay type: functional; conditions: time 20-22 hrs
Pseudomonas aeruginosa [14] = test: Antibacterial activity against multidrug-resistant Pseudomonas aeruginosa PAO1 assessed as bacterial growth inhibition incubated for 20 to 22 hrs by CLSI based analysis; assay type: functional; conditions: time 20-22 hrs
Escherichia coli [15] = test: Antibacterial activity against […] assessed as bacterial growth inhibition incubated for 20 to 22 hrs by CLSI based analysis; assay type: functional; conditions: time 20-22 hrs
Citrobacter freundii = test: Antibacterial activity against multidrug-resistant Citrobacter freundii ATCC 8090 assessed as bacterial growth inhibition incubated for 20 to 22 hrs by CLSI based analysis; assay type: functional; conditions: time 20-22 hrs
Klebsiella pneumoniae [16] = test: Antibacterial activity against multidrug-resistant Klebsiella pneumoniae BAA2146 assessed as bacterial growth inhibition incubated for 20 to 22 hrs by CLSI based analysis; assay type: functional; conditions: time 20-22 hrs
Providencia stuartii = test: Antibacterial activity against multidrug-resistant Providencia stuartii ATCC 49809 assessed as bacterial growth inhibition incubated for 20 to 22 hrs by CLSI based analysis; assay type: functional; conditions: time 20-22 hrs
Proteus mirabilis = test: Antibacterial activity against multidrug-resistant Proteus mirabilis ATCC 7002 assessed as bacterial growth inhibition incubated for 20 to 22 hrs by CLSI based analysis; assay type: functional; conditions: time 20-22 hrs
Klebsiella pneumoniae [17] = test: Antibacterial activity against multidrug-resistant Klebsiella pneumoniae G199 assessed as bacterial growth inhibition incubated for 20 to 22 hrs by CLSI based analysis; assay type: functional; conditions: time 20-22 hrs
Klebsiella pneumoniae [18] = test: Antibacterial activity against multidrug-resistant Klebsiella pneumoniae R1525 assessed as bacterial growth inhibition incubated for 20 to 22 hrs by CLSI based analysis; assay type: functional; conditions: time 20-22 hrs
Escherichia coli [19] = test: Antibacterial activity against multidrug-resistant Escherichia coli MG1655 assessed as bacterial growth inhibition incubated for 20 to 22 hrs by CLSI based analysis; assay type: functional; conditions: time 20-22 hrs
Escherichia coli [20] = test: Antibacterial activity against multidrug-resistant Escherichia coli UT189 assessed as bacterial growth inhibition incubated for 20 to 22 hrs by CLSI based analysis; assay type: functional; conditions: time 20-22 hrs
Klebsiella pneumoniae [21] = test: Antibacterial activity against multidrug-resistant Klebsiella pneumoniae BAA2473 assessed as bacterial growth inhibition incubated for 20 to 22 hrs by CLSI based analysis; assay type: functional; conditions: time 20-22 hrs
Klebsiella pneumoniae [22] = test: Antibacterial activity against […] assessed as bacterial growth inhibition incubated for 20 to 22 hrs by CLSI based analysis; assay type: functional; conditions: time 20-22 hrs
Acinetobacter baumannii [23] = test: Antibacterial activity against multidrug-resistant Acinetobacter baumannii R831 assessed as bacterial growth inhibition incubated for 20 to 22 hrs by CLSI based analysis; assay type: functional; conditions: time 20-22 hrs
Escherichia coli [24] = test: Antibacterial activity against multidrug-resistant Escherichia coli MG1655 harboring tolC mutant assessed as bacterial growth inhibition incubated for 20 to 22 hrs by CLSI based analysis; assay type: functional; conditions: time 20-22 hrs
Acinetobacter baumannii [25] = test: Antibacterial activity against multidrug-resistant Acinetobacter baumannii R835 assessed as bacterial growth inhibition incubated for 20 to 22 hrs by CLSI based analysis; assay type: functional; conditions: time 20-22 hrs

MIC (Klebsiella pneumoniae [2]) [µg/mL]	remaining at 4 h [3] [%]	MIC (Escherichia coli [4]) [µg/mL]	remaining at 1 h [5] [%]	MIC (Acinetobacter baumannii [6]) [µg/mL]	remaining at 1 h [7] [%]	remaining at 4 h [8] [%]	SMILES	MIC (Pseudomonas aeruginosa [12]) [µg/mL]	MIC (Escherichia coli [13]) [µg/mL]	MIC (Enterobacter cloacae) [µg/mL]	MIC (Pseudomonas aeruginosa [14]) [µg/mL]	MIC (Escherichia coli [15]) [µg/mL]	MIC (Citrobacter freundii) [µg/mL]	MIC (Klebsiella pneumoniae [16]) [µg/mL]	MIC (Providencia stuartii) [µg/mL]	MIC (Proteus mirabilis) [µg/mL]	further results
16	11	4	35	> 32	20	13	CC[C@H](C)[C@H](NC(=O)[C@@H](NC(=O)[C@H](CO)NC(=O)[C@@H](NC(=O)CNC(=O)[C@H](Cc1ccccc1)N(C)C(=O)[C@@H](O)[C@@H](O)[C@H](CNC(=O)[C@H](NC(=O)[C@H](O)[C@H](C)O)[C@H](O)c1cncn1C)OC)C(C)(C)O)C(C)(C)O)C(=O)N[C@@H](CO)C(=O)O										Activity (Escherichia coli [1]): -1.9 log10CFU
2	72	2	105	> 32	104	104	CO[C@@H](CNC(=O)[C@H](NC(=O)[C@H](O)[C@H](C)O)[C@H](O)c1cncn1C)[C@H](O)[C@H](O)C(=O)N(C)[C@@H](Cc1ccccc1)C(=O)NCC(=O)N[C@H](C(=O)N[C@@H](CO)C(=O)N[C@H](C(=O)N[C@H](C(=O)N[C@@H](CO)C(=O)O)C(C)(C)C)C(C)(C)O)C(C)(C)O										Activity (Escherichia coli [9]): -5.9 log10CFU
							C[C@@H](O)[C@H]1C(=O)N2C(C(=O)O)=C(S[C@@H]3CN[C@H](C(=O)N(C)C)C3)[C@H](C)[C@H]12 [MEROPENEM]	≤ 0.25	< 0.03	> 16	1 (≈ 2.61 µM)	< 0.03	≤ 0.25	> 16	≤ 0.25	≤ 0.25	MIC (Escherichia coli [10]): 8 µg/mL (≈ 20.9 µM); MIC (Klebsiella pneumoniae [11]): < 0.03 µg/mL
							C[C@@H](O)[C@H]1C(=O)N2C(C(=O)O)=C(SCCNC=N)C[C@H]12 [IMIPENEM ANHYDROUS]	1 (≈ 3.34 µM)	> 2	> 64	2 (≈ 6.68 µM)	0.25 (≈ 0.835 µM)	1 (≈ 3.34 µM)	> 16	< 0.125	1 (≈ 3.34 µM)	MIC (Klebsiella pneumoniae [17]): 16 µg/mL (≈ 53.4 µM); MIC (Klebsiella pneumoniae [18]): > 64 µg/mL; MIC (Escherichia coli [19]): ≤ 0.015 µg/mL; MIC (Escherichia coli [20]): ≤ 0.25 µg/mL; MIC (Klebsiella pneumoniae [21]): 1 µg/mL (≈ 3.34 µM); MIC (Klebsiella pneumoniae [22]): 16 µg/mL (≈ 53.4 µM); MIC (Acinetobacter baumannii [23]): > 64 µg/mL; MIC (Escherichia coli [24]): ≤ 0.015 µg/mL; MIC (Acinetobacter baumannii [25]): > 1 µg/mL
